According to patent publication US20210188843A1, “QUINOLINE COMPOUNDS AND THEIR PREPARATION AND USE AS ANTIMALARIAL AGENTS” (The United States of America,as represented by the …, priority 2018, published 2021):
Read-outs that look alike come from different tables or passages of the source.

Legend:
[1] = tested on: Asexual parasites of P. falciparum strain 3D7; assay: In vitro drug activity on asexual parasites (SYBR Green assay); format: cell-based; details: Plasmodium falciparum, P. falciparum 3D7 asexual stage, 72 h, read-out: Asexual EC50
How it was run: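 Growth was measured by SYBR Green I fluorescence (excitation 490 nm, emission 520 nm) after freeze-thaw lysis and 30 min staining at room temperature. Parasites (0.5% parasitemia, 2% hematocrit) had been incubated 72 h with compound, DMSO below 0.5%. Conditions were run in duplicate with no-drug and RBC-alone controls.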

[2] = Microsomal stability (rat); format: in vitro ADME; details: rat microsomes
Solubility pH 7.4 = format: physicochemical; details: aqueous buffer
PAMPA permeability = format: in vitro ADME
[3] = Table 1, read-out: Microsomal Stability (rat) T1/2

SMILES	EC50 ([1]; Table 1) [nM]	half-life [2, 3] [min]	solubility (Solubility pH 7.4; Table 1) [µg/mL]	Papp (PAMPA permeability; Table 1) [×10⁻⁶ cm/s]	also measured
Cc1ccc(C#N)cc1-n1/c(=N/S(N)(=O)=O)n(C)c2cnc3ccc(-c4ccc(Cl)cc4)cc3c21 [Compound 100, (8-(4-chlorophenyl)-1-(5-cyano-2-methylphenyl)-3-methyl-1,3-dihydro-2H-imidazo[4,5-c]quinolin-2-ylidene)sulfonamide]	12.9	> 30	< 1	236	–
C/N=c1\ccc2cnc3ccc(-c4ccc(Cl)cc4)cc3c2n1-c1ccc(C(=O)NC2CC2)cc1	–	–	–	–	EC50 ([1]; Table 2): 1210 nM; half-life ([2]; Table 2, read-out: Microsomal Stability (rat) T1/2): 17.4 min; solubility (Solubility pH 7.4; Table 2): < 1 µg/mL; Papp (PAMPA permeability; Table 2): 130 ×10⁻⁶ cm/s
Cc1ccc(C#N)cc1-n1c(=N)n(C)c2cnc3ccc(C4=CCN(C)C4)cc3c21 [Compound 60, 3-(2-imino-3-methyl-8-(1-methyl-2,5-dihydro-1H-pyrrol-3-yl)-2,3-dihydro-1H-imidazo[4,5-c]quinolin-1-yl)-4-methylbenzonitrile]	481	> 30	> 39	2	–
COc1ccc(-c2ccc3ncc4c(c3c2)n(-c2cncnc2)c(=N)n4C)cc1OC	–	–	–	–	EC50 ([1]; Table 3): 17 nM; half-life ([2]; Table 3, read-out: Microsomal Stability (rat) T1/2): > 30 min; solubility (Solubility pH 7.4; Table 3): > 61 µg/mL; Papp (PAMPA permeability; Table 3): 510 ×10⁻⁶ cm/s

The next lines start with results.

EC50 ([1]; Table 1) [nM]	half-life [2, 3] [min]	solubility (Solubility pH 7.4; Table 1) [µg/mL]	Papp (PAMPA permeability; Table 1) [×10⁻⁶ cm/s]	SMILES	also measured
125	> 30	< 1	30.5	Cn1c(=N)n(-c2cnc(N3CCNCC3)c(C#N)c2)c2c3cc(-c4ccc(Cl)cc4)ccc3ncc21 [Compound 48, 5-(8-(4-chlorophenyl)-2-imino-3-methyl-2,3-dihydro-1H-imidazo[4,5-c]quinolin-1-yl)-2-(piperazin-1-yl)nicotinonitrile]	–
54.5	> 30	> 42	147	Cc1ccc(C#N)cc1-n1c(=N)n(C)c2cnc3ccc(-c4ccc(F)c(O)c4)cc3c21 [Compound 39, 3-(8-(4-fluoro-3-hydroxyphenyl)-2-imino-3-methyl-2,3-dihydro-1H-imidazo[4,5-c]quinolin-1-yl)-4-methylbenzonitrile]	–
